# Laboratory results taken from patent EP4567035A1, “NOVEL COMPOUND AS HYPOXIA-INDUCIBLE FACTOR 1(HIF-1) INHIBITOR OR VASCULAR ENDOTHELIAL GROWTH FACTOR (VEGF) INHIBITOR, AND PHARMACEUTICAL COMPOSITION COMPRISING SAME” (Nextgen Bioscience Co., Ltd., priority 2022, dated 2024).
# Read-outs that look alike come from different tables or passages of the source.
# Key:
# HIF-1α = biological target: T1, HIF-1α (Homo sapiens, UniProt Q16665); experiment: Analysis of HIF-1α protein expression (Western blot) in ARPE-19 cells under mixed hypoxic condition; assay type: cell-based; settings: concentration range at which HIF-1α expression is reduced by 50% vs untreated control
# T1 construct: endogenous in cells; host or cells: ARPE-19 (ATCC CRL-2302)
# T1 sequence (Q16665 whole entry): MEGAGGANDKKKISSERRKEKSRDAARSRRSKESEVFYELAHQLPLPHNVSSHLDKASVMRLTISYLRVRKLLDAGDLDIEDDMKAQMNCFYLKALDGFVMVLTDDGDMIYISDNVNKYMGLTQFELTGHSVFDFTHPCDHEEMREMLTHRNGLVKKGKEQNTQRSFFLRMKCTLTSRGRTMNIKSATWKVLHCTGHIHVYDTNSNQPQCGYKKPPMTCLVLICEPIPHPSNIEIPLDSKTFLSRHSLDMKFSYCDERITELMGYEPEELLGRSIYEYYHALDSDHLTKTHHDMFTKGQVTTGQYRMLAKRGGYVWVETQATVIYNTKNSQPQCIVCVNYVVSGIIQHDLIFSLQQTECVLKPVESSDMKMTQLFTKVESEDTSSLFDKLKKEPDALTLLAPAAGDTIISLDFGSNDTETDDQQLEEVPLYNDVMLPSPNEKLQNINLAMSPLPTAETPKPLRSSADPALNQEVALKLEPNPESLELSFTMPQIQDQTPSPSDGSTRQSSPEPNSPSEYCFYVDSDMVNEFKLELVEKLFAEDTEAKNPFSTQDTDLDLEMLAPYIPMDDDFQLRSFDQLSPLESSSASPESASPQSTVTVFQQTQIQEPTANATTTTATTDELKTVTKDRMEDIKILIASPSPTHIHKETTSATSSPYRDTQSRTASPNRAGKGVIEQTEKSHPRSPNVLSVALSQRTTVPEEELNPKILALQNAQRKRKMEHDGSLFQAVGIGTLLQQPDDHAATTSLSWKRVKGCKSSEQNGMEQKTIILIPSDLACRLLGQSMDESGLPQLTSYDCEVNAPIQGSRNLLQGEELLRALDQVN
# Procedure, shortened: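 ARPE-19 cells were pretreated 16 h or 2 h with compound (0.1 nM–10 µM, serum-free DMEM/F12), then held 1 h or 24 h in mixed hypoxia (1% O2 plus CoCl2). HIF-1α was quantified by Western blot against β-actin; the concentration range giving ≥50% reduction vs untreated control was reported.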
# VEGF = experiment: Evaluation of VEGF protein secretion level (Human VEGF ELISA) in ARPE-19 cell medium under hypoxic conditions; assay type: cell-based
# Description: ARPE-19 cells (Human retinal pigment epithelial cells, ATCC CRL-2302) were cultured in DMEM/F12 (LM002-08, Welgene) medium containing 10% fetal bovine serum (FBS, 16000-044, Gibco) in an incubator at 37°C with 5% carbon dioxide. When the cells grew sufficiently, they were cultured in experimental culture dishes for protein isolation and medium supernatant acquisition.
# Cells were detached from the culture dish using TrypLE™ Express (Gibco). After centrifugation at 1000 rpm for 3 minutes, the supernatant was removed. The cells were counted and seeded into new culture dishes. Normoxic conditions were maintained by culturing the cells in a 37°C incubator with 5% carbon dioxide, and hypoxic conditions were maintained by culturing the cells in a hypoxic incubator with 1% oxygen, 5% carbon dioxide, and 94% nitrogen gas.
# The expression of the downstream gene, angiogenesis inducer VEGF, is regulated by HIF-1α, a major transcription factor under hypoxic conditions, and the level of secreted VEGF protein can be quantitatively confirmed through ELISA (Enzyme Linked Immunosorbent Assay, Human VEGF Quantikine ELISA Kit, R&D systems). For this purpose, the following experiment was conducted.
# The compounds of each Example were diluted to 0.1 nM, 1 nM, 3 nM, 10 nM, 30 nM, 100 nM, 300 nM, 1 µM and 10 µM in DMEM/F12 medium containing 1% fetal bovine serum, pretreated for 2 hours, and cultured for 24 hours under hypoxic conditions to obtain the cell medium supernatant. The supernatant was centrifuged at 1000 rpm for 3 minutes, and a specific amount was treated with a VEGF ELISA assay kit and the absorbance value was measured at 450 nm to quantitatively confirm the level of VEGF protein (see Table 1 below).
# Based on the results of secreted VEGF protein expression levels in cell media treated with compounds diluted at concentrations ranging from 10 µM to 0.1 nM, the concentration range of the compound at which the secreted VEGF protein level was reduced by 50% or less compared to the untreated control group was derived.
# [1] = mixed hypoxic condition (1% oxygen + CoCl2) for 1 hour, read-out: IC50 HIF-1α Hypoxia (1 hour)
# [2] = ARPE-19 cells, pretreated 2 hours, 24 hours hypoxic conditions, secreted VEGF in medium supernatant by ELISA, concentration range reducing VEGF by 50% vs untreated control, read-out: IC50 VEGF
# [3] = values marked * in the table, mixed hypoxic condition (1% oxygen + CoCl2) for 24 hours, read-out: IC50 HIF-1α, Hypoxia(24h)
# [4] = ARPE-19 cells, pretreated 2 hours, 24 hours hypoxic conditions, ELISA, read-out: concentration at which the secreted VEGF protein level was suppressed to less than 50%
# [5] = Experimental Example 2 (HIF-1α Western blot), read-out: concentration at which the expression level of VEGF was suppressed to less than 50%
Structure (SMILES),DC50 (HIF-1α; [1]) [nM],IC50 (VEGF; [2]) [nM],DC50 (HIF-1α; [3]) [nM],IC50 (VEGF; [4]) [nM],IC50 (VEGF; [5]) [nM]
"O=C(NCc1cc(F)cc(-c2ccco2)c1)c1ncnc2nc(C3CCCC3)[nH]c12 [Example 39, 8-Cyclopentyl-N-(3-fluoro-5-(furan-2-yl)benzyl)-7H-purine-6-carboxamide]",100 to 1000,100 to 1000,–,–,–
"O=C(NCc1cc(F)cc(Nc2ccc(C(F)(F)F)cc2)c1)c1ncnc2nc(C3CCCC3)[nH]c12 [Example 41, 8-Cyclopentyl-N-(3-fluoro-5-((4-(trifluoromethyl)phenyl)amino)benzyl)-7H-purine-6-carboxamide]",< 100,100 to 1000,–,–,–
"COc1ccc(-n2cc(-c3cc(F)cc(CNC(=O)c4ncnc5nc(C6CCCC6)[nH]c45)c3)cn2)cn1 [Example 43, 8-Cyclopentyl-N-(3-fluoro-5-(1-(6-methoxypyridin-3-yl)-1H-pyrazol-4-yl)benzyl)-7H-purine-6-carboxamide]",< 100,100 to 1000,–,–,–
"O=C(NCc1cc(F)cc(-c2cnn(-c3ccc(C(F)(F)F)nc3)c2)c1)c1ncnc2nc(C3CCCC3)[nH]c12 [Example 44, 8-Cyclopentyl-N-(3-fluoro-5-(1-(6-(trifluoromethyl)pyridin-3-yl)-1H-pyrazol-4-yl)benzyl)-7H-purine-6-carboxamide]",< 100,100 to 1000,–,–,–
"CS(=O)(=O)c1cccc(-n2cc(-c3cc(F)cc(CNC(=O)c4ncnc5nc(C6CCCC6)[nH]c45)c3)cn2)c1 [Example 45, 8-Cyclopentyl-N-(3-fluoro-5-(1-(3-(methylsulfonyl)phenyl)-1H-pyrazol-4-yl)benzyl)-7H-purine-6-carboxamide]",–,< 100,< 100,< 100,< 100
"O=C(NCc1cc(F)cc(-c2cnn(-c3ccc(I)cn3)c2)c1)c1ncnc2nc(C3CCCC3)[nH]c12 [Example 48, 8-Cyclopentyl-N-(3-fluoro-5-(1-(5-iodopyridin-2-yl)-1H-pyrazol-4-yl)benzyl)-7H-purine-6-carboxamide]",< 100,1000 to 10000,–,–,–
"O=C(O)c1cccc(-n2cc(-c3cc(F)cc(CNC(=O)c4ncnc5nc(C6CCCC6)[nH]c45)c3)cn2)c1 [Example 49, 3-(4-(3-((8-Cyclopentyl-7H-purine-6-carboxamido)methyl)-5-fluorophenyl)-1H-pyrazol-1-yl)benzoic acid]",< 100,1000 to 10000,–,–,–
"N#Cc1ccc(-n2cc(-c3cc(F)cc(CNC(=O)c4ncnc5nc(C6CCCC6)[nH]c45)c3)cn2)cc1 [Example 50, N-(3-(1-(4-cyanophenyl)-1H-pyrazol-4-yl)-5-fluorobenzyl)-8-cyclopentyl-7H-purine-6-carboxamide]",–,< 100,< 100,< 100,< 100
"O=C(NCc1cc(F)cc(-c2ccn(-c3ccc(F)cc3)n2)c1)c1ncnc2nc(C3CCCC3)[nH]c12 [Example 51, 8-Cyclopentyl-N-(3-fluoro-5-(1-(4-fluorophenyl)-1H-pyrazol-3-yl)benzyl)-7H-purine-6-carboxamide]",< 100,100 to 1000,–,–,–
"O=C(NCc1cc(F)cc(-c2ccn(-c3ccc(F)cc3)c2)c1)c1ncnc2nc(C3CCCC3)[nH]c12 [Example 52, 8-Cyclopentyl-N-(3-fluoro-5-(1-(4-fluorophenyl)-1H-pyrrol-3-yl)benzyl)-7H-purine-6-carboxamide]",< 100,100 to 1000,–,–,–
"NC(=O)c1ccc(-n2cc(-c3cc(F)cc(CNC(=O)c4ncnc5nc(C6CCCC6)[nH]c45)c3)cn2)cc1 [Example 53, N-(3-(1-(4-carbamoylphenyl)-1H-pyrazol-4-yl)-5-fluorobenzyl)-8-cyclopentyl-7H-purine-6-carboxamide]",–,100 to 1000,< 100,–,–
"O=C(O)c1ccc(-n2cc(-c3cc(F)cc(CNC(=O)c4ncnc5nc(C6CCCC6)[nH]c45)c3)cn2)cc1 [Example 54, 4-(4-(3-((8-Cyclopentyl-7H-purine-6-carboxamido)methyl)-5-fluorophenyl)-1H-pyrazol-1-yl)benzoic acid]",< 100,100 to 1000,–,–,–
"O=C(NCc1cc(-c2cnn(-c3ccc(F)cc3)c2)ccc1F)c1ncnc2nc(C3CCCC3)[nH]c12 [Example 56, 8-Cyclopentyl-N-(2-fluoro-5-(1-(4-fluorophenyl)-1H-pyrazol-4-yl)benzyl)-7H-purine-6-carboxamide]",–,100 to 1000,< 100,–,–
"O=C(NCc1cccc(-c2cnn(-c3ccc(F)cc3)c2)c1)c1ncnc2nc(C3CCCC3)[nH]c12 [Example 57, 8-Cyclopentyl-N-(3-(1-(4-fluorophenyl)-1H-pyrazol-4-yl)benzyl)-7H-purine-6-carboxamide]",–,100 to 1000,< 100,–,–
"O=C(NCc1cc(F)cc(-c2cnn(-c3ccc(Cl)cc3)c2)c1)c1ncnc2nc(C3CCCC3)[nH]c12 [Example 58, N-(3-(1-(4-chlorophenyl)-1H-pyrazol-4-yl)-5-fluorobenzyl)-8-cyclopentyl-7H-purine-6-carboxamide]",–,100 to 1000,< 100,–,–
"CS(=O)(=O)c1cc(Br)ccc1-n1cc(-c2cc(F)cc(CNC(=O)c3ncnc4nc(C5CCCC5)[nH]c34)c2)cn1 [Example 59, N-(3-(1-(4-bromo-2-(methylsulfonyl)phenyl)-1H-pyrazol-4-yl)-5-fluorobenzyl)-8-cyclopentyl-7H-purine-6-carboxamide]",–,100 to 1000,100 to 1000,–,–

# Continued, values first:
DC50 (HIF-1α; [1]) [nM],IC50 (VEGF; [2]) [nM],DC50 (HIF-1α; [3]) [nM],IC50 (VEGF; [4]) [nM],IC50 (VEGF; [5]) [nM],Structure (SMILES)
–,100 to 1000,< 100,–,–,"O=C(NCc1cc(F)cc(-c2ccsc2)c1)c1ncnc2nc(C3CCCC3)[nH]c12 [Example 40, 8-Cyclopentyl-N-(3-fluoro-5-(thiophen-3-yl)benzyl)-7H-purine-6-carboxamide]"
–,< 100,< 100,< 100,< 100,"Cc1cc(-n2cc(-c3cc(F)cc(CNC(=O)c4ncnc5nc(C6CCCC6)[nH]c45)c3)cn2)ccn1 [Example 42, 8-Cyclopentyl-N-(3-fluoro-5-(1-(2-methylpyridin-4-yl)-1H-pyrazol-4-yl)benzyl)-7H-purine-6-carboxamide]"
–,100 to 1000,< 100,–,–,"O=C(NCc1cc(F)cc(-c2cnn(-c3cccc(F)c3)c2)c1)c1ncnc2nc(C3CCCC3)[nH]c12 [Example 46, 8-Cyclopentyl-N-(3-fluoro-5-(1-(3-fluorophenyl)-1H-pyrazol-4-yl)benzyl)-7H-purine-6-carboxamide]"
–,< 100,< 100,< 100,< 100,"O=C(NCc1cc(F)cc(-c2cnn(-c3ccc(F)nc3)c2)c1)c1ncnc2nc(C3CCCC3)[nH]c12 [Example 47, 8-Cyclopentyl-N-(3-fluoro-5-(1-(6-fluoropyridin-3-yl)-1H-pyrazol-4-yl)benzyl)-7H-purine-6-carboxamide]"
–,100 to 1000,< 100,–,–,"O=C(NCc1cc(F)cc(-c2cnn(-c3ccc(F)c(F)c3)c2)c1)c1ncnc2nc(C3CCCC3)[nH]c12 [Example 60, 8-Cyclopentyl-N-(3-(1-(3,4-difluorophenyl)-1H-pyrazol-4-yl)-5-fluorobenzyl)-7H-purine-6-carboxamide]"
100 to 1000,1000 to 10000,–,–,–,"CN1CCC[C@H]1c1nc2ncnc(C(=O)NCc3cc(F)cc(-c4cnn(C)c4)c3)c2[nH]1 [Example 63, (S)-N-(3-fluoro-5-(1-methyl-1H-pyrazol-4-yl)benzyl)-8-(1-methylpyrrolidin-2-yl)-7H-purine-6-carboxamide]"
< 100,1000 to 10000,–,–,–,"CN1CCC[C@@H]1c1nc2ncnc(C(=O)NCc3cc(F)cc(-c4cnn(C)c4)c3)c2[nH]1 [Example 66, (R)-N-(3-fluoro-5-(1-methyl-1H-pyrazol-4-yl)benzyl)-8-(1-methylpyrrolidin-2-yl)-7H-purine-6-carboxamide]"
100 to 1000,1000 to 10000,–,–,–,"Cn1cc(-c2cc(F)cc(CNC(=O)c3ncnc4nc(C5CC6C(C5)C6(F)F)[nH]c34)c2)cn1 (centres unmarked) [Example 77, 8-(6,6-Difluorobicyclo[3.1.0]hexan-3-yl)-N-(3-fluoro-5-(1-methyl-1H-pyrazol-4-yl)benzyl)-7H-purine-6-carboxamide]"
